Test results reported in US20080160553A1, “Method of preparing heart muscle cells and method of searching for remedy for heart diseases” (Takeda Pharmaceutical Company Limited, priority 2000, published 2008).

Columns and labels:
[1] = tested on: heart muscle cells; details: by activating Akt; cited from earlier work
[2] = tested on: heart muscle cells of rat newborns; test: Inhibition of serum-removal-induced apoptosis of heart muscle cells, conventional MTT reduction method (no serum re-addition); assay type: cell-based; details: 1000 U/ml hLIF, 4 days serum-free, MTT as coloration substrate
Excerpt: (§1) Using the heart muscle cells of rat newborns obtained by the present method of preparing heart muscle cells as described in Example 1, their apoptosis was induced by removing serum from the culture, and the inhibitory action of recombinant human leukemia inhibitory factor (hLIF, produced by Peprotech) on the apoptosis was detected by the conventional method with MTT as the coloration substrate and by the present method of detecting apoptosis with WST-8 or MTT as the coloration substrate, and the sensitivity of the two methods was compared.
First, the muscle cells obtained in the method of preparing heart muscle cells according to the invention were suspended at a density of 3×10^5 cells/ml in Medium 199 containing 10% fetal calf serum, put onto a 96-wells plate in a volume of 0.1 ml/well, and then cultured for 1 day in a CO2 incubator set at 5% CO2, 37° C. […] In the conventional method, the number of viable cells in the culture was measured directly with MTT as the coloration substrate. In the method of the invention, on the other hand, fetal calf serum was added thereto at a concentration of 10%, and the cells were further cultured for about 17 hours in a CO2 incubator set at 5% CO2, 37° C., and the number of viable cells was determined by using WST-8 or MTT as the coloration substrate.

[3] = tested on: heart muscle cells of rat newborns; test: Inhibition of serum-removal-induced apoptosis of heart muscle cells, present detection method (serum re-added, about 17 h) with WST-8; assay type: cell-based; details: 1000 U/ml hLIF
Description: (§2) The heart muscle cells obtained by the method of the invention are adjusted to a cell density of 3×10^4 cells/well (96-wells plate) and cultured in serum-free medium such as Medium 199 in a CO2 incubator set at 5% CO2, 37° C. for 4 days, thus inducing apoptosis to reduce the survival rate of the heart muscle cells to 50% or less.
(§3) Serum such as FCS is added at a final concentration of 10% to the culture, which is then cultured for about 17 hours and measured for its dehydrogenase activity (reduction activity) with MTT or WST-8 as the coloration substrate, to determine the number of viable cells.
as §1
First, the muscle cells obtained in the method of preparing heart muscle cells according to the invention were suspended at a density of 3×10^5 cells/ml in Medium 199 containing 10% fetal calf serum, put onto a 96-wells plate in a volume of 0.1 ml/well, and then cultured for 1 day in a CO2 incubator set at 5% CO2, 37° C. The plate was stirred with a micromixer (Taiyo Kagaku Kogyo Co., Ltd.) and the medium was exchanged 3 times with serum-free Medium 199, followed by adding 0 to 1000 U/ml hLIF. The culture was incubated for additional 4 days to induce apoptosis. In the conventional method, the number of viable cells in the culture was measured directly with MTT as the coloration substrate. In the method of the invention, on the other hand, fetal calf serum was added thereto at a concentration of 10%, and the cells were further cultured for about 17 hours in a CO2 incubator set at 5% CO2, 37° C., and the number of viable cells was determined by using WST-8 or MTT as the coloration substrate. […]
First, the heart muscle cells obtained in the method described in Example 1 were suspended at a density of 3×10^5 cells/ml in Medium 199 containing 10% fetal bovine serum, and put in a volume of 0.1 ml/well onto each well of 2nd to 11th rows on each of three 96-wells plates. […] The cells were cultured for 4 days to induce apoptosis, and fetal calf serum was added at a concentration of 10%, and the cells were cultured for additional 17 hours in a CO2 incubator set at 5% CO2, 37° C., and then the number of viable cells was counted with WST-8 as the coloration substrate.

[4] = tested on: heart muscle cells of rat newborns; test: Inhibition of serum-removal-induced apoptosis of heart muscle cells, present detection method (serum re-added, about 17 h) with MTT; assay type: cell-based; details: 1000 U/ml hLIF, 4 days serum-free, then 10% serum about 17 h, MTT as coloration substrate
Description: as §2, §3
Using the heart muscle cells of rat newborns obtained by the present method of preparing heart muscle cells as described in Example 1, their apoptosis was induced by removing serum from the culture, and the inhibitory action of recombinant human leukemia inhibitory factor (hLIF, produced by Peprotech) on the apoptosis was detected by the conventional method with MTT as the coloration substrate and by the present method of detecting apoptosis with WST-8 or MTT as the coloration substrate, and the sensitivity of the two methods was compared. […]

hIGF-1: recombinant human IGF-1 (hIGF-1, produced by Peprotech)
effect on apoptosis of heart muscle cells [1]: inhibit apoptosis of heart muscle cells

hLIF: recombinant human leukemia inhibitory factor (hLIF, produced by Peprotech)
increase in the average absorbance as compared with the control group [2]: ≤ 0.03
increase in average absorbance relative to control group ([3]; 4 days serum-free, then 10% serum about 17 h, WST-8 as coloration substrate): ≥ 0.3
average absorbance (number of viable cells) ([3]; plate 1, WST-8, control 0.22±0.039): 0.54±0.055
average absorbance (number of viable cells) ([3]; plate 2, WST-8, control 0.15±0.028): 0.45±0.035
average absorbance (number of viable cells) ([3]; plate 3, WST-8, control 0.13±0.020): 0.43±0.059
increase in absorbance relative to control group [4]: ~0.1
